The values that follow come from patent US9132111B2, “Topical antimicrobial compositions” (priority 2011, dated 2015).

What all share (format): cell-based
The subject of experiment [1] is Candida albicans ATCC 10231. Briefly: Bactericidal effect of antimicrobial composition against Candida albicans. The method, then: 1) Testing strain: Candida albicans ATCC 10231, the 5-6 generations; provide by the “Reserve Center of Chinese Microbial Reservation Committee”.
The testing sample was diluted for 2, 4, 8, 16, 32, 64, 128 and […] times using standard hard water, then reacted with ATCC 10231 for 1 min, 5 min, 10 min.
(§1) 2. Testing Methods and Standards:
(§2) <<Technical Standard for Disinfection>> (2002 Edition)
(§3) GB15979-2002 <<Technical standard for testing disinfection product>> “Procedures for testing bactericide effect”
The bactericidal effect of antimicrobial composition against Candida albicans ATCC10231 at 20±1° C. temperature is shown in table 6.

The test system of experiment [2] is Staphylococcus aureus ATCC6538. Briefly: Bactericide effect of antimicrobial composition against Staphylococcus aureus. The method, then: 1) Testing strain: Staphylococcus aureus ATCC6538, 5-6th generations, provided by the reserve center of China microbial reservation committee.
The testing sample was diluted for 2, 4, 8, 16, 32, 64, 128 and […] folds using standard hard water, then reacted with ATCC6538 for 1 min, 5 min, 10 min.
as §1, §2, §3

The next experiment concerns Eschetichia coli 8099. Briefly: Bactericide effect of antimicrobial composition against Eschetichia coli. The protocol:
1) Testing strain: Eschetichia coli 8099, the 5-6 generations were used; provide by the “Reserve Center of Chinese Microbial Reservation Committee”.
The testing sample was diluted for 2, 4, 8, 16, 32, 64, 128 and 256 folds using standard hard water, then reacted with Eschetichia coli 8099 for 1 min, 5 min, 10 min.
as §1, §2, §3

In the case of “N,N-di-n-decyl-N,N-dimethyl-ammonium 5-oxopyrrolidine-2-carboxylate [DDAPC]”, the minimum inhibiting concentrations in experiment [1] (reacted 1 min) was 0.0016%; in experiment [1] (reacted 5 min), 0.0008%; in experiment [1] (reacted 10 min), 0.0004%; in experiment [2] (reacted 1 min), 0.0016%; in experiment [2] (reacted 5 min), 0.0004%; in experiment [2] (reacted 10 min), 0.0004%. For the same substance, the minimum inhibiting concentrations with Eschetichia coli 8099 (reacted 1 min) is recorded as 0.006%; in the experiment on Eschetichia coli 8099 (reacted 5 min), 0.003%; with Eschetichia coli 8099 (reacted 10 min), 0.003%.
